The target of this assay is recombinant human CETP protein (Homo sapiens (Human), UniProt P11597). Nature of the assay: Test of CETP inhibition activity (in vitro, buffer-based). The class given is biochemical. The settings on record: reconstituted HDL with [14C]-labeled cholesteryl ester, acceptor lipoprotein, 37° C. In short, it runs like this: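 Reconstituted HDL carrying [14C]-cholesteryl ester served as donor and plasma IDL/LDL (density 1.019–1.063) as acceptor, with 4.5 ng recombinant CETP in PBS pH 7.4. Compound (DMSO stocks 0.15–500 μM) was preincubated with CETP and acceptor for 60 min at 37 °C, then reacted with donor for 60 min. HDL-fraction radioactivity after MgCl2/dextran sulfate precipitation gave % inhibition and IC50.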

SMILES strings stand for the structures.

Chain of recombinant human CETP protein (P11597 18-493): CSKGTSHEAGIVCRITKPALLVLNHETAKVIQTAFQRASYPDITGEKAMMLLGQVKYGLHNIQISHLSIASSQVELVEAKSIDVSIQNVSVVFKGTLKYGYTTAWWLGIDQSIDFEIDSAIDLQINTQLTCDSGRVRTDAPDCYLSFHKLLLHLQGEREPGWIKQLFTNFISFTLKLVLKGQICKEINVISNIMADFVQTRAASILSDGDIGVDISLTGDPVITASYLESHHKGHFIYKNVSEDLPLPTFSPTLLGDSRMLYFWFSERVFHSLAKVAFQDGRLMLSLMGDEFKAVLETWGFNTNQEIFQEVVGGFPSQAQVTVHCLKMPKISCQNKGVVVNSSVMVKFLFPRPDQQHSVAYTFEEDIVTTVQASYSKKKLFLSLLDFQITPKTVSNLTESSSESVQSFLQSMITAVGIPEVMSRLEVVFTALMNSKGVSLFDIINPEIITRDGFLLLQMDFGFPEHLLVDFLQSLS

In general, IC50 refers to the concentration needed to halve the response being measured. On to `CC1(C)Cc2nc(C3CCN(c4ncc(OCCCS(C)(=O)=O)cn4)CC3)c([C@@H](F)c3ccc(C(F)(F)F)cc3)c(C3CCC(F)(F)CC3)c2[C@@H](O)C1` (single isomer, unassigned) [Example 45, (−)-4-(4,4-Difluorocyclohexyl)-3-{fluoro[4-(trifluoromethyl)phenyl]methyl}-7,7-dimethyl-2-(1-{5-[3-(methylsulphonyl)propoxy]pyrimidin-2-yl}piperidin-4-yl)-5,6,7,8-tetrahydroquinolin-5-ol], for which the IC50 amounted to 13 nM. In the case of `CC1(C)Cc2nc(C3CCN(c4ncc(OC[C@@H](O)CO)cn4)CC3)c([C@@H](F)c3ccc(C(F)(F)F)cc3)c(C3CCC(F)(F)CC3)c2[C@@H](O)C1` [Example 39, (−)-4-(4,4-Difluorocyclohexyl)-2-[1-(5-{[(2S)-2,3-dihydroxypropyl]oxy}pyrimidin-2-yl)piperidin-4-yl]-3-{fluoro[4-(trifluoromethyl)phenyl]methyl}-7,7-dimethyl-5,6,7,8-tetrahydroquinolin-5-ol] it was 32 nM. The value for `CC1(C)Cc2nc(C3CCN(c4ncc(C(=O)N5CCOCC5)cn4)CC3)c([C@@H](F)c3ccc(C(F)(F)F)cc3)c(C3CCC(F)(F)CC3)c2[C@@H](O)C1` (single isomer, unassigned) [Example 32, 4-(4,4-Difluorocyclohexyl)-3-{fluoro[4-(trifluoromethyl)phenyl]methyl}-7,7-dimethyl-2-{1-[5-(morpholin-4-yl-carbonyl)pyrimidin-2-yl]piperidin-4-yl}-5,6,7,8-tetrahydroquinolin-5-ol] was 19 nM; that for `CC1(C)Cc2nc(C3CCN(c4ncc(OCCCCC(=O)O)cn4)CC3)c([C@@H](F)c3ccc(C(F)(F)F)cc3)c(C3CCC(F)(F)CC3)c2[C@@H](O)C1` (single isomer, unassigned) [Example 23, (−)-2-{1-[5-(4-Carboxybutoxyl)pyrimidin-2-yl]piperidin-4-yl}-4-(4,4-difluorocyclohexyl)-3-{fluoro[4-(trifluoromethyl)phenyl]methyl}-7,7-dimethyl-5,6,7,8-tetrahydroquinolin-5-ol] was 37 nM. In the case of `CC1(C)Cc2nc(C3CCN(c4ncc(CCCCC(=O)O)cn4)CC3)c([C@@H](F)c3ccc(C(F)(F)F)cc3)c(C3CCC(F)(F)CC3)c2[C@@H](O)C1` (single isomer, unassigned) [Example 25, (−)-2-{1-[5-(4-carboxybutyl)pyrimidine-2-yl]piperidin-4-yl}-4-(4,4-difluorocyclohexyl)-3-{fluoro[4-(trifluoromethyl)phenyl]methyl}-7,7-dimethyl-5,6,7,8-tetrahydroquinoline-5-ol] it was 19 nM.

(Values after patent US9187450B2, “Substituted pyridine compound” (Daiichi Sankyo Company, Limited, priority 2010, dated 2015).)
